Results as given in patent publication US20140099257A1, “Androgen Suppression, Prostate-Specific Membrane Antigen and the Concept of Conditionally Enhanced Vulnerability” (CORNELL UNIVERSITY, priority 2012, published 2014).

Tested on: AR
Experiment: Silencing of AR with siRNA in prostate cancer cell lines; AR, PSMA expression (FACS, western blot) and PSA secretion
Type: cell-based, human
Conditions: FACS analysis of LNCaP, MDA-Pca-2b and LAPC-4 cells (FIG. 6)
Protocol: For western blots, cells were lysed with Cell Lysis Buffer (Cell Signaling Technology, Danvers, Mass.) containing 1 mM phenylmethylsulphonyl fluoride (EMD Chemicals, Gibbstown, N.J.). Equal amounts of protein were applied in each well on a 10% Tris-HCl gel (Bio-Rad Laboratories, Hercules, Calif.). The proteins were transferred onto Immobilon-P Membranes (Millipore, Billerica, Mass.), after which the filters were probed with the following reagents: murine anti-PSMA mAb J591, murine mAb anti-AR (AR441), rabbit anti-human AR, murine mAb anti-human beta-actin, and/or goat polyclonal anti-GAPDH. For quantitative western blots, the Li-cor Odyssey Infrared Imaging System (Lincoln, Nebr.) was used. With this system, two different proteins of the same molecular weight (e.g., PSMA and AR) can be detected simultaneously and quantified on the same blot using two different antibodies from two different species (mouse and rabbit) followed by detection with two IRDye labeled secondary antibodies. […] After washing, the membranes were scanned and the bands were quantified with the Odyssey Infrared Imaging System.
Fluorescence-activated cell sorting (FACS) analysis was also employed in these examples0. […]

For “non-targeted-siRNA: non-targeting control siRNA 5′-CCUACGCCACCAAUUUCGU-3′ (Dharmacon) (chemistry not given here)”, the AR expression was “did not affect expression” and the PSMA expression was “did not affect expression”.
